Test results from paper PMC12391391, “The balance between B55α and Greatwall expression levels predicts sensitivity to Greatwall inhibition in cancer cells” (Nature Communications, 2025).

How the values were obtained:
[1] = target: MELK (Homo sapiens, UniProt Q14680); experiment: biochemical; parameters: LanthaScreen kinase activity assay (Thermo Fisher), dose-dependent inhibition by C-604; details: read-out: IC50 (C-604)
Description: (§1) To identify potential C-604 off-targets, we utilised a commercially available off-target screening service (Thermo Fisher Scientific) to assess the impact of C-604 on the in vitro activity of 100 human kinases (Supplementary Fig. 8a). Out of 100 tested targets, C-604 (1 µM) inhibited GWL (inhibition 95%) and an additional 10 kinases (inhibition ≥ 80%). […] The in vitro off-target effects of compound C-604 were determined by assessing its inhibitory potential in a panel of 100 human kinases using the LanthaScreen Kinase Activity Assay (Thermo Fisher Scientific).

[2] = target: T1, PRKD2 (Homo sapiens, UniProt Q9BZL6); experiment: biochemical; parameters: LanthaScreen kinase activity assay (Thermo Fisher), dose-dependent inhibition by C-604; details: read-out: IC50 (C-604)
T1 sequence (Q9BZL6 1-878): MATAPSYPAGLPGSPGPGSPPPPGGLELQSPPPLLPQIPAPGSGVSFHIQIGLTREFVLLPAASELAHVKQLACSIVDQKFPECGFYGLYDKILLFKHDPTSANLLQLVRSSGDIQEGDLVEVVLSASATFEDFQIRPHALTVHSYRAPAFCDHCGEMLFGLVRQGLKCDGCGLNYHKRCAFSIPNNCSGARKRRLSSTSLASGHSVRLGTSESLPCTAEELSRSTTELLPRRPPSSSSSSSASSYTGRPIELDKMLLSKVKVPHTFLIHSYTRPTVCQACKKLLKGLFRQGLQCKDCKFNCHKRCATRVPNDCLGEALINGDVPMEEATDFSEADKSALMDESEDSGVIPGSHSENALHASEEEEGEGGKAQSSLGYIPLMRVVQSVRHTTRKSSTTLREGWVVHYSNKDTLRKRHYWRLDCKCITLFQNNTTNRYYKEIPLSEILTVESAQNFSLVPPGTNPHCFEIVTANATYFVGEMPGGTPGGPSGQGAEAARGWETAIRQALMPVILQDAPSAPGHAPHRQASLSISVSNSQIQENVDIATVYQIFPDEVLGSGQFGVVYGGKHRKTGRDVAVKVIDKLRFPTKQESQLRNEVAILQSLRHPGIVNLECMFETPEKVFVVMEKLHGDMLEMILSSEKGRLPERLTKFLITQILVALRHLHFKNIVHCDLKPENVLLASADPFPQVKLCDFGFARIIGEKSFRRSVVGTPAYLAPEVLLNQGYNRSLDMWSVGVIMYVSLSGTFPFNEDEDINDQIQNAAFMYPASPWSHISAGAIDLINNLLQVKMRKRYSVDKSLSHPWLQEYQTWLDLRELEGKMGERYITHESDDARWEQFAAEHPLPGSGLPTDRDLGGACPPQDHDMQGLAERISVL
Description: as §1

[3] = target: MARK3 (Homo sapiens, UniProt P27448); experiment: biochemical; parameters: LanthaScreen kinase activity assay (Thermo Fisher), dose-dependent inhibition by C-604; details: read-out: IC50 (C-604)
Description: as §1

[4] = target: T2, MAP3K7 (Homo sapiens, UniProt O43318); experiment: biochemical; parameters: LanthaScreen kinase activity assay (Thermo Fisher), dose-dependent inhibition by C-604; details: read-out: IC50 (C-604)
T2 sequence (O43318 1-606): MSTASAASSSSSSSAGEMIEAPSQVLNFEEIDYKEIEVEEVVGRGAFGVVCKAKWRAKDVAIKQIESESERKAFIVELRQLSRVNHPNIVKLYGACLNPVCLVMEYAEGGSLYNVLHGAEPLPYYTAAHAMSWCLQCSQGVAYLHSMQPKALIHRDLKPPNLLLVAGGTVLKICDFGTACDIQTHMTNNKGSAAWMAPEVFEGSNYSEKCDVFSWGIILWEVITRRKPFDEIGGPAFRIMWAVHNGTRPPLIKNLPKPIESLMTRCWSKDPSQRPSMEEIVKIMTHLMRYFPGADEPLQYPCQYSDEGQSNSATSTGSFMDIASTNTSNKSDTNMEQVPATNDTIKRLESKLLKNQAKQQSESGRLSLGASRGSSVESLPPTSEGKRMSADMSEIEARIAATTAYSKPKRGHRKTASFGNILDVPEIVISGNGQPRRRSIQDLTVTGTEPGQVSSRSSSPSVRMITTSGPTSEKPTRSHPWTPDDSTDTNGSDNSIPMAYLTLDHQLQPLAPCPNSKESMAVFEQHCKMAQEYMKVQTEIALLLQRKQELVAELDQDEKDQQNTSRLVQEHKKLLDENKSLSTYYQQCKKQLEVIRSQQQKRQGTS
Description: as §1

[5] = target: HIPK2 (Homo sapiens, UniProt Q9H2X6); experiment: biochemical; parameters: LanthaScreen kinase activity assay (Thermo Fisher), dose-dependent inhibition by C-604; details: read-out: IC50 (C-604)
Description: as §1

[6] = physchem; parameters: aqueous solubility at pH 7.0; details: pH 7.0; buffer pH 7.0; aqueous buffer pH 7.0
From the text: (§2) We selected compound 1 as the lead exemplar of cluster 3 and leveraged it as a foundation for subsequent drug development (Fig. 1a). Structure-activity relationship studies and pharmacokinetic profiling produced several derivative molecules, of which compound 21 provided the best combination of outstanding inhibitory potential, low clearance in mouse microsomes and acceptable solubility (Fig. 1a–c and Supplementary Tables 1–4). […] This assessment was supported by structural modelling of the interaction between compound 21 and the active site of GWL (Fig. 1d). In further support of its GWL-targeting properties, compound 21 diminished the phosphorylation of the canonical GWL substrate ENSA(S67) in Xenopus laevis cytostatic factor (CSF) egg extract (Supplementary Fig. 2). Having satisfied the criteria of prospective GWL inhibitor, the racemic compound 21 was registered as UOS-00054604 and, for the remainder of the manuscript, is referred to as C-604.

[7] = in vitro; parameters: intrinsic clearance in mouse microsomes; details: liver microsomes; mouse liver microsomes
From the text: as §2

Sequence of MARK3 (P27448 whole entry): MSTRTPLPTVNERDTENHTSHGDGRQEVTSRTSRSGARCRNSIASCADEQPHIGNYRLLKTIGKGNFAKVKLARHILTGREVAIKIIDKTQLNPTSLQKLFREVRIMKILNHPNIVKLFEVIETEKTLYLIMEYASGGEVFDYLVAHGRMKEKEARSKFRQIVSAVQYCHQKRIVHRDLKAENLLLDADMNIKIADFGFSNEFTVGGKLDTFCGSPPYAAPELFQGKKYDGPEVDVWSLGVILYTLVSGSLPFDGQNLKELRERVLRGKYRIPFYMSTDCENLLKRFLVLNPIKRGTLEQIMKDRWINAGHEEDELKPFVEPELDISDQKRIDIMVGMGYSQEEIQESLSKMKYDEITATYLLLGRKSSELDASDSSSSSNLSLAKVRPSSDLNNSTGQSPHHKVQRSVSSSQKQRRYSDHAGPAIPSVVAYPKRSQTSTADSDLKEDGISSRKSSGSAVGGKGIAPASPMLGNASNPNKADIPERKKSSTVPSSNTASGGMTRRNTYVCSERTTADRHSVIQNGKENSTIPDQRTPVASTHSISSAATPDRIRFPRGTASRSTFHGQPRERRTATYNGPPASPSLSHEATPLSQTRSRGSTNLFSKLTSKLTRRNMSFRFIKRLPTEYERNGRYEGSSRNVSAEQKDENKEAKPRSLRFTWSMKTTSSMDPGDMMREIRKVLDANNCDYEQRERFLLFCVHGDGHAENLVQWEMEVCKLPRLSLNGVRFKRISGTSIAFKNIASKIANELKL
Sequence of HIPK2 (Q9H2X6 whole entry): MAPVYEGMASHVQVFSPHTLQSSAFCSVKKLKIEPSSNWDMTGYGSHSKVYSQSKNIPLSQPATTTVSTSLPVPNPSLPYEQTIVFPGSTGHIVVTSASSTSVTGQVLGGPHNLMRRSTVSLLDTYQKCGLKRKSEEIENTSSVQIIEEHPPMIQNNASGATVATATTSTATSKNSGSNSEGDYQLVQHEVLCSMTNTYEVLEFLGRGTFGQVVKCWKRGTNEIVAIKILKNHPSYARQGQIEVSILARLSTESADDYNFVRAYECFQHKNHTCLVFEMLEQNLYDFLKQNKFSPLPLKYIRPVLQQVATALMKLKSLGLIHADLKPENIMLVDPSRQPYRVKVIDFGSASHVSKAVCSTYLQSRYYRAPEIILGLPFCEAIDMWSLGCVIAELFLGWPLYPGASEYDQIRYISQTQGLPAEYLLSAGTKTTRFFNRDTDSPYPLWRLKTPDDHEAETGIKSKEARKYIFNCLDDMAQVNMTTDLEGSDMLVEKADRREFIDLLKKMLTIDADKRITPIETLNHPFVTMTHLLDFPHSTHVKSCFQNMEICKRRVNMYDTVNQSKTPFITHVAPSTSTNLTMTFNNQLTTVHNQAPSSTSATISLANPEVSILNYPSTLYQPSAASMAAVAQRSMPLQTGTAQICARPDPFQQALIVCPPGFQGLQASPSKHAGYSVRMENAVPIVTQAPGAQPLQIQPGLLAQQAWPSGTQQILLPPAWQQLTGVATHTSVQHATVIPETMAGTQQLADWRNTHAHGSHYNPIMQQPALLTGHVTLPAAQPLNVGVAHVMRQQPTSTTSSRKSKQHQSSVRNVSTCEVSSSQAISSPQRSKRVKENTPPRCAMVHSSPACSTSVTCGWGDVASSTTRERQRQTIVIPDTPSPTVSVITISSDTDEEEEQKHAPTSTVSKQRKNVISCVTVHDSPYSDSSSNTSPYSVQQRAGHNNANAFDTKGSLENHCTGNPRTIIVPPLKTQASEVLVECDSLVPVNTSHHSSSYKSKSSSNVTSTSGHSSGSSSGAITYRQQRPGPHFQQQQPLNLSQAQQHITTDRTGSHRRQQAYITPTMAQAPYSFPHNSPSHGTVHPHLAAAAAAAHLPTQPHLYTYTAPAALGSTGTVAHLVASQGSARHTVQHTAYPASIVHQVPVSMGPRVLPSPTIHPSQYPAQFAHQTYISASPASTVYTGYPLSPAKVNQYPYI
Sequence of MELK (Q14680 whole entry): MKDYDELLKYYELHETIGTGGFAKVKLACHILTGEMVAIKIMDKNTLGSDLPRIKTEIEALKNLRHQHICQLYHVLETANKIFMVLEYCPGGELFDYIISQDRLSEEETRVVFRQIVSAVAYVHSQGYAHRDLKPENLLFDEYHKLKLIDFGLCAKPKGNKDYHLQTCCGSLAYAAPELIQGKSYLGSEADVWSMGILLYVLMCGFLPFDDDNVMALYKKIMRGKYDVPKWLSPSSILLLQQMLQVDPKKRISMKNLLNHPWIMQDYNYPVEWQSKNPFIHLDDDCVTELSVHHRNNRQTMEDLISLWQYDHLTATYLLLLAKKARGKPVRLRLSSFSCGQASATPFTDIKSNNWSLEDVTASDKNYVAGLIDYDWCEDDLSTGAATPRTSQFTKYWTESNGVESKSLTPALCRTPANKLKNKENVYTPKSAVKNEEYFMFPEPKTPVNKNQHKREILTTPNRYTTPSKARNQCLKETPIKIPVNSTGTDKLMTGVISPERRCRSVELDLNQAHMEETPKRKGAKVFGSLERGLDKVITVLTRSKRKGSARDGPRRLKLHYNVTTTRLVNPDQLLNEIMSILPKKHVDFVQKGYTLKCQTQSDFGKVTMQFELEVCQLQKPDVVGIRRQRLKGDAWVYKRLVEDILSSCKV

Compound: CNC(=O)c1c[nH]c2ncc(-c3ccc(OCCN4CCC(c5ccccc5)C4)cc3)nc12 (racemic) [compound 21, C-604]
- IC50 [1]: 16.9 nM
- IC50 [2]: 373 nM
- IC50 [3]: 480 nM
- IC50 [4]: 126 nM
- IC50 [5]: 43 nM
- solubility [6]: 72 µM
- microsomal CLint [7]: 24 µL/min/mg
